According to paper PMC11997890, “In Vivo and In Vitro Pharmacokinetic Studies of a Dual Topoisomerase I/II Inhibitor” (ACS Pharmacology & Translational Science, 2025):

Key:
[1] = In vitro biotransformation of P8-D6 with pig liver fractions; type: in vitro ADME; settings: for formation of metabolite from P8-D6: 1 mM P8-D6, 150 min
Description: P8-D6 (1 mM) was incubated with postnuclear supernatant (PNS), microsomes, or S9 reaction mixture of various tissue samples (liver, kidney, lung, spleen, and colon) from different donor species (pigs, mice, rats, and humans) for 150 min (study preparation scheme supplied as Figure S5). The commercial human and rat enzymes were subjected to quality control by the supplier. Three phase I metabolites were identified. […] LC-MS and NMR spectroscopic data for the metabolites are given in Supporting Information. Based on the structural characteristics, the metabolites were named as follows: P8-DO (4), P8-D6 N-oxide (6), and P8-D6 mono (8). All metabolites were synthesized to confirm the postulated structure (chapter Synthesis of Metabolites). The extent of metabolism during in vitro incubation was highly dependent on the species (pig > mouse > rat > human) (Figure ).
For all phase I metabolism studies (except cell cultures), a 0.3 mL reaction mixture consisting of 1 mM substrate (P8-D6, P8-D6 mono, P8-D6 N-oxide), 1 mM NADPH as a cofactor, 0.67 mg/mL protein from homogenized tissue or subcellular fractions, respectively (except recombinant enzymes, where 0.5 mg/mL was used), and PBS buffer (pH 7.4) was used. All experiments were performed in biological triplicates. The FDA Guidance for Industry highlights 7 CYP isoenzymes (1A2, 2B6, 2C8, 2C9, 2C19, 2D6, and 3A4/5) which routinely should be tested for metabolism during drug development. Table S1 presents an overview of the tissue material and species as well as the CYP enzymes used in this study. All reactions were carried out at 37 °C in a shaking water bath for 150 min before they were stopped with 0.3 mL of an ice-cold mixture of acetonitrile/methanol (1:1). The suspension was vortexed for 30 s and centrifuged at 15000 g for 5 min, and finally, 10 μL of the supernatant was injected into the HPLC. Control samples were prepared with buffer instead of either protein/tissue, cofactor, or substrate.

[2] = system: OvCar8, A2780, Igrov-1 cells; assay: Metabolism in ovarian cancer cell culture supernatants (HPLC); type: in vitro ADME, human; settings: for total metabolism (sum of all detected metabolites as percentage of the substrate): supernatants of OvCar8, A2780, Igrov-1 after treatment
Description: After treatment, the supernatants of the cell cultures were collected in order to quantify metabolites by HPLC. In Figure 3 C, the total metabolism in % (as the sum of all detected metabolites as a percentage of the substrate) is shown in dependency of the respective treatment. Overall, P8-D6 is always the most metabolized substrate at ∼5%, followed by P8-D6 N-oxide at ∼2.6% and P8-D6 mono at ∼1%. […] In contrast to previous incubation with homogenized tissue (Figure ), P8-D6 was mostly metabolized to P8-DO (2.05%) and to a lesser extent to P8-D6 mono and P8-D6 N-oxide. P8-D6 mono was converted to P8-DO and less extensively metabolized to P8-D6 and a new unknown metabolite (0.10%). Due to the increased polarity and, therefore, decreased HPLC retention time, a nitrone would be thinkable. Such reactions have been described in the literature. − However, due to the very limited content of this metabolite, it could not be identified further. During incubation with P8-D6 N-oxide, P8-D6 features the major metabolite, while P8-D6 mono and P8-DO were formed to a lesser amount. The protein expression of Cyp3A4, mARC1 and 2, and FMO3 in the cell lines used was analyzed by Western blot (Figure 3 E).
The human ovarian cancer cell lines OvCar8, Igrov-1, and A2780, purchased from ATCC, were maintained in RPMI1640 medium, including L-glutamine supplemented with 10% fetal bovine serum and 60 IU/mL penicillin–streptomycin. Cells were grown at 37 °C and 5% CO2 in a humidified incubator and subcultivated at a confluency of 70–80%. Cell line authenticity was checked by STR profiling as described previously, and mycoplasma contamination was routinely investigated using MycoAlert (Lonza).

[3] = In vivo tissue distribution of P8-D6 and metabolites; parameters: species or system Sprague–Dawley rats
Description: Another part of this in vivo study was to identify in vivo metabolites and determine the tissue distribution of P8-D6 (study preparation scheme supplied as Figure S5). […] P8-D6 N-oxide reached c max/p.o. of 0.054 μM at 30 min, and all following results were below the limit of quantification (LoQ).
P8-D6 and P8-D6 mono each constituted about 20–30% of the detected derivatives. The extent of metabolism was, to a certain degree, organ-dependent (spleen > colon > lungs > kidney > liver). The highest concentration of P8-DO was found in the spleen at 8.7 nmol/g and the lowest in the liver at 4.5 nmol/g.
Effects of the diet were reduced by fasting the rats overnight prior to P8-D6 application. Blood samples were taken at 5, 15, 30, 60, 120, 180, 300, 360, and 600 min after i.v. application or 30, 60, 90, 120, 240, and 600 min after p.o. application. Immediately afterward, the plasma was collected by centrifugation at 2000 g for 10 min. The rats were housed in metabolic cages to collect the urine in specially attached containers. Urine and feces samples were collected every 2 h. The rats were euthanized by CO2 inhalation. The harvested organs (kidney, spleen, lung, liver, and colon) were weighed and submerged in liquid nitrogen. All collected samples were stored at −80 °C until analysis.
100 μL of each tissue homogenate/PNS was mixed with 200 μL of an ice-cold mixture of acetonitrile/methanol (2:1) and stirred in the vortex for 5 min. The suspension was centrifuged at 20000 g for 10 min, and 50 μL of the supernatant was injected into the HPLC. The samples from six mice per group were analyzed. Calibration/control samples were prepared the same way with organ samples collected from equal Sprague–Dawley rats from nonpharmacological studies prepared according to chapter Tissue/Enzymes. For calibration, the matrix was spiked with a defined concentration of the analyte. Final concentrations ranged from 0 to 10 nmol/g. Triple determinations were performed and prepared on each respective day. LoD: 0.81 nmol/g (spleen), 0.33 nmol/g (liver), 0.48 nmol/g (lungs), 1.14 nmol/g (colon), 0.38 nmol/g (kidney); LoQ: 2.69 nmol/g (spleen), 1.09 nmol/g (liver), 1.59 nmol/g (lungs), 3.80 nmol/g (colon), 1.28 nmol/g (kidney).

[4] = spleen, liver, lungs, kidney, colon after P8-D6

Row | formation of metabolite from P8-D6 ([1]; pig liver PNS) | formation of metabolite from P8-D6 ([1]; pig liver S9-fraction) | formation of metabolite from P8-D6 ([1]; pig liver microsomes) | total metabolism (sum of all detected metabolites as percentage of the substrate) [2] | detection in tissue [3, 4] | extent of formation lower than P8-D6 N-oxide ([1]; porcine liver microsomes) | proportion of all derivatives detected in tissue [3, 4] | metabolite formed from P8-D6 ([2]; OvCar8 supernatant) | concentration in tissue ([3]; liver (lowest)) | concentration in tissue ([3]; spleen (highest)) | SMILES
1 | 6.88% | 7.58% | 28.67% | ~2.6% | no P8-D6 N-oxide was observed at all | – | – | – | – | – | COc1cc(-c2cc3ccncc3c3nc(OCC[N+](C)(C)[O-])c4cnccc4c23)cc(OC)c1OC [P8-D6 N-oxide]
2 | – | – | 1.31% | ~1% | – | 21.9 fold | 20–30% | – | – | – | CNCCOc1nc2c3cnccc3cc(-c3cc(OC)c(OC)c(OC)c3)c2c2ccncc12 [P8-D6 mono]
3 | – | – | 0.13% | – | – | – | about 50% | 2.05% | 4.5 nmol/g | 8.7 nmol/g | COc1cc(-c2cc3ccncc3c3[nH]c(=O)c4cnccc4c23)cc(OC)c1OC [P8-DO]

Row | SMILES | formation of metabolite from P8-D6 ([1]; pig liver PNS) | formation of metabolite from P8-D6 ([1]; pig liver S9-fraction) | formation of metabolite from P8-D6 ([1]; pig liver microsomes) | total metabolism (sum of all detected metabolites as percentage of the substrate) [2] | detection in tissue [3, 4] | extent of formation lower than P8-D6 N-oxide ([1]; porcine liver microsomes) | proportion of all derivatives detected in tissue [3, 4] | metabolite formed from P8-D6 ([2]; OvCar8 supernatant) | concentration in tissue ([3]; liver (lowest)) | concentration in tissue ([3]; spleen (highest))
4 | COc1cc(-c2cc3ccncc3c3nc(OCCN(C)C)c4cnccc4c23)cc(OC)c1OC [P8-D6, 6-(N,N-dimethyl-2-aminoethoxy)-11-(3,4,5-trimethoxyphenyl)-pyrido[3,4-c][1,9]-phenanthroline] | – | – | – | ~5% | – | – | 20–30% | – | – | –
